Results from patent US12186402B2, “Polymer materials for delivery of short-chain fatty acids to the intestine for applications in human health and treatment of disease” (The University of Chicago, priority 2017, dated 2025).

System: allergy to peanuts induced in mice
Assay: Induced peanut allergy model: challenge with peanut protein; core body temperature, peanut-specific IgE, IgG1, mMCP-1
Assay type: in vivo, mouse

CCCC(=O)[O-].[Na+] [sodium butyrate]
physiological markers and symptoms of an allergic reaction (Example 8: allergic mice, 2.83 mg per g body weight daily by oral gavage, FIG. 17): not effective | core body temperature over time after challenge with peanut protein (protection) (FIG. 19, allergic mice, daily oral treatment): no protection
